pIC50: −log10 of the molar value.
What was measured:
MSTO-211H cells = experiment: Proliferation Assay (CellTiter-Glo Luminescent Cell Viability Assay); type: cell-based; details: Homo sapiens, 96 hours treatment
Summary of the method: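 MSTO-211H cells, 1,500/well in RPMI 1640 with 10% FBS, plated overnight, then treated 96 h with 9-point 3-fold compound series in duplicate (DMSO below 0.5%). Viability by CellTiter-Glo luminescence; inhibition relative to DMSO wells, IC50 by four-parameter fit.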

[1] = target: TEAD1(210-426) binding to YAP(50-100) (Homo sapiens, UniProt P28347); experiment: TR-FRET Assay for TEAD1(210-426) Binding to YAP(50-100); details: His-TEAD 10 nM, YAP-Biotin peptide 50 nM
Summary of the method: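 10 nM His-TEAD1 preincubated 30 min at room temperature with compound (3-fold dilutions, 12 points, 1% DMSO), then 50 nM biotin-YAP peptide added.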

TEAD1(210-426) binding to YAP(50-100), sequence (P28347 209-426): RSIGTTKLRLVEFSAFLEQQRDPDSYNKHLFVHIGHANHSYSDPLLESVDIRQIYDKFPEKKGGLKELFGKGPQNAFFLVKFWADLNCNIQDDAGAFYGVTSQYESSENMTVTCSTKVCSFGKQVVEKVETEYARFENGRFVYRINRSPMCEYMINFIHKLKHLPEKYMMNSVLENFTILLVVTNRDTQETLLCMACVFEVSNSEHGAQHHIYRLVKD

SMILES: COCCN(C)c1nccc(Cn2ccc(-c3nn(-c4ccc(C(F)(F)F)cc4)c4c(F)cccc34)cc2=O)n1 [Compound 147, 4-(7-fluoro-1-(4-(trifluoromethyl)phenyl)-1H-indazol-3-yl)-1-((2-((2-methoxyethyl)(methyl)amino)pyrimidin-4-yl)methyl)pyridin-2(1H)-one]
- pIC50 (MSTO-211H cells): ≥ 6.00
- pIC50 [1]: ≥ 7.00

SMILES: O=c1cc(-c2nn(-c3ccc(C(F)(F)F)cc3)c3c(Cl)cccc23)ccn1Cc1ccnc(NCCO)n1 [Compound 148, 4-(7-chloro-1-(4-(trifluoromethyl)phenyl)-1H-indazol-3-yl)-1-((2-((2hydroxyethyl)amino)pyrimidin-4-yl)methyl)pyridin-2(1H)-one]
- pIC50 (MSTO-211H cells): ≥ 6.00
- pIC50 [1]: ≥ 7.00

SMILES: CNc1nccc(Cn2ccc(-c3nn(-c4ccc(C5CC5)cc4)c4c(F)cccc34)cc2=O)n1 [Compound 149, 4-(1-(4-cyclopropylphenyl)-7-fluoro-1H-indazol-3-yl)-1-((2-(methylamino)pyrimidin-4-yl)methyl)pyridin-2(1H)-one]
- pIC50 (MSTO-211H cells): ≥ 6.00
- pIC50 [1]: ≥ 7.00

SMILES: COCCNc1nccc(Cn2ccc(-c3nn(-c4ccc(OC(F)(F)F)cc4)c4c(F)cccc34)cc2=O)n1 [Compound 150, 4-(7-fluoro-1-(4-(trifluoromethoxy)phenyl)-1H-indazol-3-yl)-1-((2-((2-methoxyethyl)amino)pyrimidin-4-yl)methyl)pyridin-2(1H)-one]
- pIC50 (MSTO-211H cells): ≥ 6.00
- pIC50 [1]: ≥ 7.00

SMILES: O=c1cc(-c2nn(-c3ccc(OC(F)(F)F)cc3)c3c(F)cccc23)ccn1Cc1ccnc(NCCO)n1 [Compound 151, 4-(7-fluoro-1-(4-(trifluoromethoxy)phenyl)-1H-indazol-3-yl)-1-((2-((2-hydroxyethyl)amino)pyrimidin-4-yl)methyl)pyridin-2(1H)-one]
- pIC50 (MSTO-211H cells): ≥ 6.00
- pIC50 [1]: ≥ 7.00

SMILES: CNc1nccc(Cn2ccc(-c3nn(-c4ccc(C5COC5)cc4)c4c(F)cccc34)cc2=O)n1 [Compound 152]
- pIC50 (MSTO-211H cells): ≥ 6.00
- pIC50 [1]: ≥ 7.00

SMILES: O=c1cc(-c2nn(-c3ccc(C(F)(F)F)cc3)c3cccc(F)c23)ccn1Cc1ccnc(OCCO)n1 [Compound 153, 4-(4-fluoro-1-(4-(trifluoromethyl)phenyl)-1H-indazol-3-yl)-1-((2-(2-hydroxyethoxy)pyrimidin-4-yl)methyl)pyridin-2(1H)-one]
- pIC50 (MSTO-211H cells): ≥ 6.00
- pIC50 [1]: ≥ 7.00

SMILES: COCCOc1nccc(Cn2ccc(-c3nn(-c4ccc(C(F)(F)F)cc4)c4cccc(F)c34)cc2=O)n1 [Compound 154, 4-(4-fluoro-1-(4-(trifluoromethyl)phenyl)-1H-indazol-3-yl)-1-((2-(2-methoxyethoxy)pyrimidin-4-yl)methyl)pyridin-2(1H)-one]
- pIC50 (MSTO-211H cells): ≥ 6.00
- pIC50 [1]: ≥ 7.00

SMILES: COCCN(C)c1nccc(Cn2ccc(-c3nn(-c4ccc(C(F)(F)F)cc4)c4cccc(F)c34)cc2=O)n1 [Compound 155, 4-(4-fluoro-1-(4-(trifluoromethyl)phenyl)-1H-indazol-3-yl)-1-((2-((2-methoxyethyl)(methyl)amino)pyrimidin-4-yl)methyl)pyridin-2(1H)-one]
- pIC50 (MSTO-211H cells): ≥ 6.00
- pIC50 [1]: 6.00 to 7.00

SMILES: O=c1cc(-c2nn(-c3ccc(C(F)(F)F)cc3)c3c(F)cccc23)ccn1Cc1ccnc(Cl)n1 [Compound 157, 1-((2-chloropyrimidin-4-yl)methyl)-4-(7-fluoro-1-(4-(trifluoromethyl)phenyl)-1H-indazol-3-yl)pyridin-2(1H)-one]
- pIC50 (MSTO-211H cells): ≥ 6.00
- pIC50 [1]: ≥ 7.00

SMILES: CNc1nccc(Cn2ccc(-c3nn(-c4ccc(C(F)(F)F)cc4)c4cccc(F)c34)cc2=O)n1 [Compound 158, 4-(1-(4-((difluoro-13-methyl)-12-fluoranyl)phenyl)-4-fluoro-1H-indazol-3-yl)-1-((2-(methylamino)pyrimidin-4-yl)methyl)pyridin-2(1H)-one]
- pIC50 (MSTO-211H cells): ≥ 6.00
- pIC50 [1]: ≥ 7.00

From patent US20250154127A1, “BICYCLIC HETEROARYL COMPOUNDS AND USES THEREOF” (ETERN BIOPHARMA (SHANGHAI) CO., LTD., priority 2022, published 2025)
